Measurements from paper PMC5691054, “An unexpected protein interaction promotes drug resistance in leukemia” (Nature Communications, 2017).
“Also recorded” adds a separate entry of the source. Where no end group is shown, it is not given here. The star is where a group is joined. Biotin = O=C1N[C@H]2[C@H](CS[C@H]2CCCCC(=O)*)N1; FAM = fluorescein

Assays:
MO7e cells [1] = assay: Cytarabine cytotoxicity in MO7e cells; assay type: cell-based, Human; settings: in words
Description: MO7e cells were seeded at 1500 cells per well of a 96-well plate. Cells were then treated with Cytarabine at increasing concentrations ranging from 0.5 to 500 μM for 4 h in serum-free media. Cells were washed three times with PBS and replaced with fresh complete media for 68 h. Cell viability analysis was determined using CellTiter Glo. Where applicable, cells were treated with 10 nM Antimycin A. IC50 values were calculated using GraphPad Prism.

[2] = tested on: murine hematopoietic progenitor cells (HPC); assay: Hematopoietic progenitor cell serial replating in methylcellulose; settings: HPC transduced with MPP1; cell penetrating peptide, fresh at each replating; n = 3
[3] = tested on: ABCC4 plasma membrane localization in HEK293 cells expressing MPP1 and GFP-ABCC4; assay: ABCC4 plasma membrane localization (confocal microscopy); assay type: cell-based, Human
Description: Peptides containing or lacking the ABCC4-PDZ motif were fused with the cell penetrating HIV-TAT peptide. These peptides were tested for their effect on ABCC4 plasma membrane localization. HEK293 cells were transfected with MPP1 and GFP-ABCC4 and the ER protein, calreticulin. The plasma membrane was counter-stained with wheat-germ-agglutinin (WGA) labeled with Alexa647 after treatment with either ABCC4-PDZ or ABCC4ΔC peptide.
HEK293 cells were seeded on chambered coverglass slides (LAB-TEK) 48 h before transfection with plasmid DNA (250 ng) encoding pAc-GFP-ABCC4 or ABCC4ΔC and pCal plasmid encoding the ER resident protein calreticulin conjugated to RFP (Origene). Transfection was performed using Lipofectamine 2000 as per the manufacturer’s instructions. Immediately prior to visualizing cells, cells were counterstained with the plasma membrane marker wheat-germ agglutinin (WGA) conjugated to Alexa-647 (Invitrogen). All confocal microscopy images were acquired on a 3i Marianas system configured with an Yokagowa CSU-X spinning disk confocal microscope utilizing a ×63 Zeiss objective, using the 488 (GFP), 561 (RFP), and 660 (far red) laser lines.

HEK293 cells = assay: 6MP cytotoxicity / drug resistance in transfected HEK293 cells; assay type: cell-based, Human; settings: HEK293 co-expressing ABCC4 and MPP1; cell penetrating peptide (20 μM in methods; various amounts), 96 h, in words
Description: HEK293 cells transfected with ABCC4 or ABCC4ΔC in the presence or absence of MPP1, MO7e, and Meg01 cells were treated with 10 concentrations of 6MP, ranging from 1 to 1000 µM, for 96 h. Cell viability analysis was determined using CellTiter Glo (Promega). Where applicable, cell penetrating peptides conjugated to the PDZ-binding motif of ABCC4 (labeled either ABCC4-PDZ or ABCC4ΔC) were added to the cells at 20 μM. Media was changed daily and new ABCC4-PDZ/ABCC4ΔC peptide and 6MP was added. IC50 values were calculated using GraphPad Prism.

[4] = target: T1, MPP1 and ABCC4 protein interaction (Homo sapiens, UniProt Q00013); assay: Competition of ABCC4 C-terminal peptides with MPP1–ABCC4 complex (GST-ABCC4-C100 pull-down, immunoblot); assay type: biochemical
T1 construct: For full-length expression of MPP1, the pTriX vector containing an N-terminal His tag was used to create the His-S-MPP1 fusion protein; made in house; host or cells: E. coli
T1 sequence (Q00013 1-466): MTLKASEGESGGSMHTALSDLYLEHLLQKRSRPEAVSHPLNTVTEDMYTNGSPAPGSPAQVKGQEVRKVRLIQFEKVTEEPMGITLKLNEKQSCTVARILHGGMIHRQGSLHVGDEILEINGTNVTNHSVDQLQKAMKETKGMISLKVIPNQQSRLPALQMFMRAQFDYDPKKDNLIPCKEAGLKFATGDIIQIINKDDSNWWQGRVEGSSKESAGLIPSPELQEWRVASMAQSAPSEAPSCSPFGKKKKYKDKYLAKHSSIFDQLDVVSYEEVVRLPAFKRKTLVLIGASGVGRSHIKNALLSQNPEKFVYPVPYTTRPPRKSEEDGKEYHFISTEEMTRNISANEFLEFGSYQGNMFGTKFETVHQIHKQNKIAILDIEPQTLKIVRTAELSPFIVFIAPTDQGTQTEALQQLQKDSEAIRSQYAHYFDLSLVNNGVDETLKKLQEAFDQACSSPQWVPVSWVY
Description: C-terminal peptides of ABCC4 containing the carboxyl-terminal 15 amino acids ([…]-COOH, ABCC4-PDZ) or carboxyl-terminal 11 amino acids lacking the PDZ-binding motif ([…]-COOH, ABCC4ΔC) conjugated to the cell penetrating peptide TAT ([…]) were chemically synthesized by the Hartwell Center for Bionformatics and Biotechnology at SJCRH. ABCC4 peptides (1–4 μM) were mixed with purified GST-ABCC4-C100 (50 nM) (Supplementary Fig. 10 ) before addition of His-S-MPP1 (3.6 nM) and allowed to mix for 2 h at 24 °C. The GST-ABCC4-C100 was immobilized on glutathione beads, and washed 3 times. Protein complexes were eluted from the beads, separated by SDS-PAGE, and immunoblotted with rabbit anti-MPP1.

[5] = tested on: murine hematopoietic progenitor cells (HPC)
MO7e cells [6] = assay: 6MP cytotoxicity in MO7e cells and CRISPR knock-outs; assay type: cell-based, Human
[7] = target: T2, His-S-MPP1 fusion protein (full-length MPP1) (UniProt Q00013 1-466); assay: fluorescence polarisation; 100 nM FAM-ABCC4 incubated with various concentrations of full-length MPP1; estimated constant; settings: both partners purified
T2 construct: MPP1 (p55), full length, expressed from the pTriX vector; the fragments of the same protein are numbered up to amino acid 466; also called purified MPP1; source: E. coli, purified (nickel column); not shown: His tag, N-terminal, kept
T2 sequence (looked up): T1 sequence (Q00013 1-466)

[8] = target: T2, His-S-MPP1 fusion protein (full-length …); assay: pull-down; competition: TAT-ABCC4 peptides (1–4 μM) mixed with GST-ABCC4-C100 (50 nM) before addition of His-S-MPP1 (3.6 nM), 2 h at 24 °C; GST-ABCC4-C100 immobilized on glutathione beads, washed 3 times; immunoblot with rabbit anti-MPP1; settings: both partners purified
[9] = target: T2, His-S-MPP1 fusion protein (full-length …); assay: FRET or BRET; TR-FRET: various concentrations of B-ABCC4 with 5 nM Tb-anti-His, 50 nM AF488-streptavidin and 5 nM His-S-MPP1 in DPBS, 0.01% BSA, 1 mM DTT, 0.5% DMSO; one site total binding fit; settings: both partners purified
[10] = target: T3, MPP1, endogenous in MO7e cells (human (endogenous in MO7e), UniProt Q00013 1-466); assay: cell-based or functional assay
T3 sequence (looked up): T1 sequence (Q00013 1-466)

SNGQPSTLTIFETAL-OH [ABCC4-PDZ, carboxyl-terminal 15 amino acids of ABCC4 conjugated to the cell penetrating peptide TAT]
effect of peptide on cytarabine sensitivity (MO7e cells [1]; MO7e lacking ABCC4): no additional sensitivity to cytarabine
effect of peptide on cytarabine sensitivity (MO7e cells [1]; MO7e, cytarabine 0.5–500 μM 4 h, then 68 h): sensitized to cytarabine cytotoxicity; also recorded: specifically sensitized MO7e cells to cytarabine
effect of co-treatment on IC50 for cytarabine (MO7e cells [1]; peer review file): reduce the IC50 for cytarabine
effect on MPP1-driven methylcellulose replating [2]: suppressed methylcellulose replating
transfected cells exhibiting loss of ABCC4 at the plasma membrane ([3]; cell penetrating peptide (TAT fused; 10 μM in Supplementary Fig. 4), n = 20 fields of view): over 90%
effect on ABCC4 plasma membrane localization ([3]; in words, confocal microscopy): reduced the ABCC4 plasma membrane localization
effect of peptide on 6MP IC50 (HEK293 cells): dose-dependently suppressed the IC50 of 6MP with the highest dose almost completely reversing the salutary effect of MPP1
disruption of the MPP1 and ABCC4 protein interaction ([4]; in words, in vitro competition experiment): potently disrupted complex formation
greater affinity of MPP1 for ABCC4 vs. glycophorin c ([4]; suggested by the IC50 of ~300 nM): 15 fold
toxicity to normal hematopoietic progenitors [5]: not toxic to normal
effect of peptide on 6MP sensitivity (MO7e cells [6]; cell permeable peptide (10 μM), in words): sensitizes MO7e cells to 6MP
reduction of 6MP IC50 by peptide (MO7e cells [6]; cell permeable peptide (10 μM, Supplementary Fig. 5c)): 2.6 fold

B1: Fluorescein-conjugated C-terminal peptide of ABCC4 (FAM-TIFETAL-COOH) (peptide)
peptide: {FAM}-TIFETAL-OH
notes: ABCC4, human, C-terminal 7 amino acids with the PDZ motif ETAL; also called FAM-ABCC4; fluorescein-labeled ABCC4-PDZ motif peptide; source: synthetic peptide
Kd [7]: ~600 nM

B2: ABCC4-PDZ peptide (carboxyl-terminal 15 amino acids of ABCC4) conjugated to the cell penetrating peptide TAT (peptide)
peptide: YGRKKRRQRRRSNGQPSTLTIFETAL
notes: cell penetrating HIV-TAT peptide; ABCC4, human, carboxyl-terminal 15 amino acids with the PDZ motif ETAL, free COOH; also called cell penetrating ABCC4-PDZ peptide; source: synthetic peptide
IC50 [8]: ~300 nM

B3: Biotinylated C-terminal ABCC4 peptide (biotin-[residues removed]-COOH) (peptide)
peptide: Biotin-GHTDHMVTNTSNGQPSTLTIFETAL-OH
modifications: not fully specified; printed as biotin-GHTDHMVTNTSNGQPSTLTIFETAL-COOH
notes: ABCC4, human, C-terminal 25 amino acids with the PDZ motif ETAL; Detected through Alexa Fluor 488 streptavidin in the TR-FRET assay; also called B-ABCC4; ABCC4-PDZ peptide; source: synthetic peptide
Kd [9]: ~511 nM

B4: ABCC4, endogenous in MO7e cells (natural protein, human (endogenous in MO7e), UniProt O15439 1-1325, looked up)
chain: MLPVYQEVKPNPLQDANLCSRVFFWWLNPLFKIGHKRRLEEDDMYSVLPEDRSQHLGEELQGFWDKEVLRAENDAQKPSLTRAIIKCYWKSYLVLGIFTLIEESAKVIQPIFLGKIINYFENYDPMDSVALNTAYAYATVLTFCTLILAILHHLYFYHVQCAGMRLRVAMCHMIYRKALRLSNMAMGKTTTGQIVNLLSNDVNKFDQVTVFLHFLWAGPLQAIAVTALLWMEIGISCLAGMAVLIILLPLQSCFGKLFSSLRSKTATFTDARIRTMNEVITGIRIIKMYAWEKSFSNLITNLRKKEISKILRSSCLRGMNLASFFSASKIIVFVTFTTYVLLGSVITASRVFVAVTLYGAVRLTVTLFFPSAIERVSEAIVSIRRIQTFLLLDEISQRNRQLPSDGKKMVHVQDFTAFWDKASETPTLQGLSFTVRPGELLAVVGPVGAGKSSLLSAVLGELAPSHGLVSVHGRIAYVSQQPWVFSGTLRSNILFGKKYEKERYEKVIKACALKKDLQLLEDGDLTVIGDRGTTLSGGQKARVNLARAVYQDADIYLLDDPLSAVDAEVSRHLFELCICQILHEKITILVTHQLQYLKAASQILILKDGKMVQKGTYTEFLKSGIDFGSLLKKDNEESEQPPVPGTPTLRNRTFSESSVWSQQSSRPSLKDGALESQDTENVPVTLSEENRSEGKVGFQAYKNYFRAGAHWIVFIFLILLNTAAQVAYVLQDWWLSYWANKQSMLNVTVNGGGNVTEKLDLNWYLGIYSGLTVATVLFGIARSLLVFYVLVNSSQTLHNKMFESILKAPVLFFDRNPIGRILNRFSKDIGHLDDLLPLTFLDFIQTLLQVVGVVSVAVAVIPWIAIPLVPLGIIFIFLRRYFLETSRDVKRLESTTRSPVFSHLSSSLQGLWTIRAYKAEERCQELFDAHQDLHSEAWFLFLTTSRWFAVRLDAICAMFVIIVAFGSLILAKTLDAGQVGLALSYALTLMGMFQWCVRQSAEVENMMISVERVIEYTDLEKEAPWEYQKRPPPAWPHEGVIIFDNVNFMYSPGGPLVLKHLTALIKSQEKVGIVGRTGAGKSSLISALFRLSEPEGKIWIDKILTTEIGLHDLRKKMSIIPQEPVLFTGTMRKNLDPFNEHTDEELWNALQEVQLKETIEDLPGKMDTELAESGSNFSVGQRQLVCLARAILRKNQILIIDEATANVDPRTDELIQKKIREKFAHCTVLTIAHRLNTIIDSDKIMVLDSGRLKEYDEPYVLLQNKESLFYKMVQQLGKAEAAALTETAKQVYFKRNYPHIGHTDHMVTNTSNGQPSTLTIFETAL
IC50 of 6MP in MO7e cells with the C-terminal ABCC4 peptide [10]: 2.6 fold
